These are literature values, as cited in patent US6001882A (priority 1997, dated 1999).

For data set [1] the following is noted: cited from earlier work.
Another data set deals with psoriasis. To be noted: systemic, with long wavelength ultraviolet light; cited from earlier work.

Take `Cc1cc(O)c2c(=O)c3c(O)cc(O)c4c5c(O)cc(O)c6c(=O)c7c(O)cc(C)cc7c(c65)c(c2c1)c34` [protohypericin]: in data set [1], the “conversion on exposure to visible light” value is “converted to hypericin upon exposure to visible light”. Regarding `C=Cc1c2[n-]c(c1C)/C=c1\[n-]/c(c(C)c1C=C)=C\c1[n-]c(c(CCC(=O)O)c1C)/C=c1\[n-]c(c(C)c1CCC(=O)O)=C2.[Sn+4]` [tin-protoporphyrin], the amelioration of psoriasis entry in the data set with psoriasis was “effects amelioration of psoriasis in psoriatic patients”.
